Laboratory results: patent publication US20040077080A1, “Compositions and methods for induction of proteins involved in xenobiotic metabolism” (priority 2000, published 2004)
Read-outs that look alike come from different tables or passages of the source.

Columns and labels:
CYP1A1 mRNA [1] = assay: Northern blot of CYP1A1 mRNA in HepG2 cells
Experimental: HepG2 cells were obtained from American Type Culture Collection (ATCC). Cells were grown in DMEM (Gibco/BRL). Twenty-four hours after cells were plated and grown to confluency, they were treated with one of the bioflavonoids, TCDD, or beta-naphthoflavone (Sigma). All inducers were dissolved in DMSO and this solvent was added to control cells at 0.1%.
(§1) Total RNA from hepatocytes or HepG2 cells was isolated using Trizol™ reagent (Gibco BRL Products, Gaithersburg, Md.) and quantified by measuring absorbance at 260 nm; purity was assessed by determining the 260/280 nm ratio. […] A cDNA probe for human 18S RNA probe (Ambion, Austin Tex.) was used to normalize the amount of RNA loaded in each lane. […] Autoradiographs of Northern blots were quantified by densitometry using a Model GS-670 Imaging Densitometer equipped with Molecular Analysis/Mac version 1.1.1. Image Analysis software (BioRad laboratories, Hercules, Calif.) or by scaning autoradiograms with a ScanMaker II (Microtek) and digitized with Un-Scan-It software (Silk Scientific, Orem Utah). Exposure times used were in the linear range of the film, Kodak XAR-5.

[2] = test system: PXR / CYP3A4 response elements; assay: DPX2 (Hepg-hPXR/3A4-Luc) luciferase assay; conditions: DPX2 cells, 48 hours
Experimental: Compounds tested included known PXR ligands and conventional drugs (FIG. 30A), environmental contaminants (FIG. 30B), and herbal supplements (FIG. 30C). DPX2 cells were cultured with DMEM supplemented with 10% fetal bovine serum and neomycin. Cells were inoculated into 96-well plate at a density of 1×10^4 cells per well the day before treatment.
2. […] In addition, a distal enhancer module, XREM, was amplified by PCR using the sense primer
The resulting amplified XREM fragment was ligated upstream of PXRE containing a 3A4 promoter, into a luciferase vector.
A neomycin resistance gene was generated by PCR amplification using the pcDNA3.1 plasmid (Invitrogen, Carlsbad, Calif.), which encodes a neomycin resistant gene, as a DNA template. The sense primer had the sequence […] Amplification was followed by SalI digestion of the PCR product, and the resulting fragment ligated to the SalI-digested PGL3-promoter plasmid, which contains luciferase as a reporter gene. […] The CYP3A4 cell line DPX2 (Hepg-hPXR/3A4-Luc) was established by double transfection with the PXR expression plasmid and the luciferase plasmid containing CYP3A4 PXR response element under selection with both neomycin and hygromycin.

CYP1A1 mRNA [3] = assay: Northern blot of CYP1A1 mRNA in primary cultures of human hepatocytes (Example II); conditions: hepatocytes
Experimental: Six well plates containing human hepatocytes were obtained from the Liver Tissue Procurement and Distribution System (LTPADS, University of Minnesota, Minneapolis, Minn.). […] All inducers were dissolved in DMSO and added to media at a 0.1% final concentration of this reagent. After treatment, media was removed and cells harvested for RNA isolation.
as §1

[4] = test system: AhR (dioxin response elements); assay: DRE12-6 luciferase assay (HepG2 with dioxin response elements)
Experimental: FIG. 25A: DRE12-6 cells were treated for 28 hours with the indicated concentrations of phytochemicals. FIG. 25B: DRE12-6 cells were treated with the indicated chemicals for 3 hours prior to co-treatment with 2,3,7,8-tetrachlorodibenzo-p-dioxin (TCDD) for 28 hours.
Chemical treatment was followed by cell lysis and luciferase measurement.
FIG. 26A: DRE12-6 cells were inoculated into a 96-well plate (2×10^4 cells per well) a day prior to treatment and treated for 28 hours with the indicated concentrations of the environmental contaminants (PAHs, PAH derivatives, PCBs, or pesticide derivatives). FIG. 26B: DRE12-6 cells were treated with the indicated chemicals for 3 hours prior to co-treatment with 2,3,7,8-tetrachlorodibenzo-p-dioxin (TCDD) for 28 hours.
The luciferase-SV40 promoter vector, with the three copies of the dioxin response elements, was transfected into HepG2 cells, which were put under neomycin selection to yield the stable cell line DRE12-6, for detection of AhR-dependent transactivation.
Luciferase assay: Luciferase assays using the LucLite system (Packard Instrument Co., Meriden, Conn.) were performed according to the manufacturer's instructions. Results were expressed as relative light units or fold induction, relative to DMSO-treated control cells. The data represent the mean±standard deviation of experiments performed in duplicate.

[5] = test system: human CYP1A1 promoter (Ah receptor); assay: 101L cell luciferase assay (HepG2 with human CYP1A1 promoter-luciferase), 96-well; conditions: 101L cells, 18 hours; 1 to 20 micromolar (resveratrol 10, apigenin 5, quercetin and curcumin 20 micromolar); GTE 0.1 milligrams/ml
Experimental: Cells were initially seeded in flasks containing media without G418. After an overnight incubation the cultures were changed into media containing G418 for antibiotic selection. After three to five days, cells were removed from flasks by trypsinization and replated on either a twenty-four-well plate at a density of 3.5×10^5 cells per well, or a ninety-six-well plate at a density of 7.5×10^4 cells per well, in DMEM media that was replaced with that containing 0.1% FBS and without G418 or indicator (phenol red). The next day, media containing 0.1% FBS and G418 was added to the cultures. […] For the antagonist experiments, cells were co-treated with a flavonoid and two nanomolar TCDD. All inducers were dissolved in DMSO and this reagent was added to control cells at 0.1%. The cells were treated with varous doses and times (six to eighteen hours). After treatment, the media containing the compound was removed by aspiration and replaced with one-hundred microliters per well of DMEM for direct analysis of luciferase activity. Experiments were performed on 101L cells from frozen stocks on the initial derivation and the passage number was limited to thirty.
Luciferase assays were performed as specified by the manufacturer (LucLite system, Packard Instrument, Meriden, Conn.). Activity was determined using a Packard LumiCount luminometer and results expressed as relative light units or fold increase above control (DMSO treated cells.

CYP1A1 mRNA [6] = assay: Northern blot of CYP1A1 in primary human hepatocytes (Example V); conditions: hepatocytes
Excerpt: The isolated RNA was subjected to Northern blot analysis.

MDR1 P-glycoprotein mRNA = assay: Northern blot of MDR1 P-glycoprotein expression (Example VI)
Excerpt: FIG. 31 depicts MDR1 gene expression in LS174T cells as analyzed by Northern blot. […] Total RNA from the colon adenocarcinoma cell line LS174T was isolated and fractionated on a 1% formaldehyde gel and transferred onto a nylon membrane. The RNA blot was hybridized to ^32P-labeled MDR1 cDNA probe (top panel) or 18s rRNA probe for normalization of RNA loading on the gel (bottom panel).
FIG. 32A: Lanes 1 and 2, primary human hepatocytes; lanes 3 and 4, LS174T cells. FIG. 32B: Lanes 1 and 2, HepG2 cells; lanes 3 and 4, HepG2 that overexpress PXR (Hepg-PXR cells). FIG. 32C: Lanes 1 and 2, Caco-2; lanes 3 and 4, Caco-2 cells that overexpress PXR (Caco-PXR cells).
Total RNA from the colon adenocarcinoma cell line LS174T was isolated and fractionated on a 1% formaldehyde gel and transferred onto a nylon membrane. The RNA blot was hybridized to ^32-P-labeled MDR1 cDNA probe (top panels), ^32-P-labeled CYP3A4 cDNA probe (middle panels), or 18s rRNA probe for normalization of RNA loading on the gel (bottom panels).
FIG. 37 depicts MDR1 gene regulation in response to chrysin as studied by Northern blot analysis. […] Total RNA from the hepatocytes was isolated and fractionated on a 1% formaldehyde gel and transferred onto a nylon membrane. The RNA blot was hybridized to ^32-P-labeled MDR1 cDNA probe (top panels), ^32P-labeled CYP3A4 cDNA probe (middle panels), or 18s rRNA probe for normalization of RNA loading on the gel (bottom panels).
Northern Blot analysis for MDR1 P-glycoprotein and CYP3A4 expression: Total RNA was prepared from cells (primary hepatocytes, LS174T, HepG2, or Caco-2) using Trizol reagent (Invitrogen, Carlsbad, Calif.). For Northern blots, 15 micrograms of total RNA was fractionated on a 1% formaldehyde gel and transferred onto a nylon membrane by capillary transfer. A 530-base pair fragment of MDR1 cDNA was obtained from PCR cloning using the sense primer […] The resulting fragment was ^32P-labeled by random priming (Invitrogen, Carlsbad, Calif.) for use as an MDR1 probe. […] All constructs and cDNAs were subjected to sequence analysis. Hybridization was performed with the ExpressHyb system according to the manufacturer's instructions (Clontech, Palo Alto, Calif.).

[7] = test system: PXR / mdr1(dr4) response element; assay: Hep-PXR/Pgp-Luc stable cell luciferase assay; conditions: 48 hours; for dose dependence of luciferase induction (in words): Hep-PXR/Pgp-Luc cells; for strength of luciferase induction (in words): Hep-PXR/PgpLuc cells, omeprazole 100 micromoles per liter versus rifampicin 10 micromoles per liter
Experimental: (§2) FIG. 35 depicts dose-response behavior to various PXR activators in stable cell lines overexpressing PXR and harboring DR4 response element. FIG. 35A: Results are shown for the stable cell line Hep-PXR/PgpLuc. FIG. 35B: Results are shown for the stable cell line Caco-PXR/PgpLuc.
(§3) Cells were exposed to the test compounds for 48 hours at the concentrations indicated.
FIG. 36 depicts the effect of environmental and botanical chemicals on luciferase activity in the stable cell line Hep-PXR/PgpLuc. Cells were inoculated into 96-well plates at a density of 2×10^4 cells per well. After overnight recovery, cells were treated with the test compounds at the concentrations indicated for 48 hours.
(§4) Establishment of stable transformants containing both PXR and reporter plasmid and development of high throughput bioassay for PXR-dependent transactivation: The stable transformants Hep-PXR/mdr1(dr4)-Luc and Caco-PXR/mdr1(dr4)-Luc cell lines were generated from the parental cell lines HepG-PXR and Caco-PXR, respectively, according to the following procedure. The parental cell lines HepG-PXR and Caco-PXR, which overexpress PXR, were stably transfected with the luciferase reporter plasmid mdr1(dr4)-Luc. The transfected cells were cultured in DMEM (HepG-PXR cells) or in IMEM (Caco-PXR cells), both media supplemented with 10% fetal bovine serum and neomycin (700 micrograms per milliliter).
(§5) For the induction assay, stable transformants were seeded in 96-wells plates at a density of 1×10^4 cells per well and allowed to recover overnight. Plates were treated with test compounds at varying concentrations, using 3 replicates per dose. After 48 hours of exposure to the test compound, cells were washed with phosphate buffered saline, lysis buffer was applied to the wells, and luciferase substrate added. Following 10 minutes for light adaptation, luminescence was monitored according to the manufacturer's instructions (Packard kit, Biomed).

[8] = test system: PXR / mdr1(dr4) response element; assay: Caco-PXR/Pgp-Luc stable cell luciferase assay; conditions: Caco-PXR/Pgp-Luc cells, 48 hours
Experimental: as §2, §3, §4, §5

[9] = DRE12-6 cells, test compound 3 hours prior to co-treatment with TCDD for 28 hours

## O=c1cc(-c2ccccc2)oc2ccc3ccccc3c12 [beta-naphthoflavone]
CYP1A1 mRNA [1]
  HepG2 CYP1A1 mRNA (%), normalized to TCDD induction: 50%

## Clc1ccccc1C(c1ccccc1)(c1ccccc1)n1ccnc1 [clotrimazole]
[2]
  luciferase response curve (in words): dose-dependent

## O=c1cc(-c2ccc(O)cc2)oc2cc(O)cc(O)c12 [apigenin]
CYP1A1 mRNA [1]; human
  HepG2 CYP1A1 mRNA (%), normalized to TCDD induction: 1%
CYP1A1 mRNA [3]; human, 24 h
  CYP1A1 mRNA level Subject B (%), normalized to TCDD induction: 0%
  CYP1A1 mRNA level Subject C (%), normalized to benzanthracene induction: 3%
  CYP1A1 mRNA level Subject D (%), normalized to TCDD induction: 0%
[4]
  effect on TCDD-mediated luciferase induction (in words): effectively inhibited

## (−)-epigallocatechin gallate [EGCG]
[5]
  fold induction of CYP1A1-promoter-mediated luciferase activity by flavonoids: negligible effects

## O=C1C[C@@H](c2ccc(O)cc2)Oc2cc(O)cc(O)c21 [naringenin]
CYP1A1 mRNA [1]; human
  HepG2 CYP1A1 mRNA (%), normalized to TCDD induction: 0%
CYP1A1 mRNA [3]; human, 24 h
  CYP1A1 mRNA level Subject D (%), normalized to TCDD induction: 0%

## Cc1ccc2cc3c(ccc4ccccc43)c3c2c1CC3 [3-MC, 3-methylcholanthrene]
CYP1A1 mRNA [6]
  CYP1A1 induction by Northern blot (in words): maximum induction
[4]; DRE12-6 cells, 28 hours
  AhR-mediated luciferase induction (in words): dose-dependent increase

## COc1cc(/C=C/C(=O)CC(=O)/C=C/c2ccc(O)c(OC)c2)ccc1O [curcumin]
CYP1A1 mRNA [3]
  induction of CYP1A1 mRNA in isolated hepatocytes (in words): did not elicit induction

## CC#C[C@]1(O)CC[C@H]2[C@@H]3CCC4=CC(=O)CCC4=C3[C@@H](c3ccc(N(C)C)cc3)C[C@@]21C [RU486, mifepristone]
MDR1 P-glycoprotein mRNA; LS174T cells, 48 hours
  MDR1 expression in LS174T cells (in words): effectively induced
[7]
  dose dependence of luciferase induction (in words): dose-dependent luciferase induction
[8]
  dose dependence of luciferase induction (in words): dose-dependent luciferase induction
  strength of luciferase induction (in words): strongly induce

## COc1ccc(C(c2ccc(OC)cc2)C(Cl)(Cl)Cl)cc1 [methoxychlor]
[2]
  luciferase response curve (in words): dose-dependent
[7]
  strength of luciferase induction (in words): strongly induced
[4]; [9]
  effect on TCDD-mediated luciferase induction (in words): effectively inhibited

## CO[C@H]1/C=C/O[C@@]2(C)Oc3c(C)c(O)c4c(O)c(c(/C=N/N5CCN(C)CC5)c(O)c4c3C2=O)NC(=O)/C(C)=C\C=C\[C@H](C)[C@H](O)[C@@H](C)[C@@H](O)[C@@H](C)[C@H](OC(C)=O)[C@@H]1C [rifampicin]
MDR1 P-glycoprotein mRNA; human
  MDR1 P-glycoprotein expression in Hep-PXR stable cells (in words): did not induce MDR1 P-glycoprotein expression further

## C[C@@]12CCC[C@H]1[C@@H]1CC[C@H]3C[C@@H](O)CC[C@]3(C)[C@H]1CC2 [androstanole]
[7]
  dose dependence of luciferase induction (in words): dose-dependent luciferase induction
[8]
  dose dependence of luciferase induction (in words): dose-dependent luciferase induction

## Clc1cc(-c2ccccc2)c(Cl)c(Cl)c1Cl [2,3,4,5 tetrachlorobiphenyl]
[4]; [9]
  effect on TCDD-mediated luciferase induction (in words): effectively inhibited

## C[C@@H]1C[C@H]2[C@@H]3CCC4=CC(=O)C=C[C@]4(C)[C@@]3(F)[C@@H](O)C[C@]2(C)[C@@]1(O)C(=O)CO [dexamethasone]
[7]
  dose dependence of luciferase induction (in words): dose-dependent luciferase induction
  strength of luciferase induction (in words): Weaker luciferase induction
[8]
  dose dependence of luciferase induction (in words): dose-dependent luciferase induction

## O=c1c(O)c(-c2ccc(O)c(O)c2)oc2cc(O)cc(O)c12 [quercetin]
CYP1A1 mRNA [3]
  induction of CYP1A1 mRNA in isolated hepatocytes (in words): did not elicit induction
[4]
  effect on TCDD-mediated luciferase induction (in words): effectively inhibited

## O=c1c(O)c(-c2ccc(O)cc2)oc2cc(O)cc(O)c12 [kaempferol]
CYP1A1 mRNA [3]; human, 24 h
  CYP1A1 mRNA level Subject B (%), normalized to TCDD induction: 0%
  CYP1A1 mRNA level Subject C (%), normalized to benzanthracene induction: 10%
  CYP1A1 mRNA level Subject D (%), normalized to TCDD induction: 0%
[4]
  effect on TCDD-mediated luciferase induction (in words): effectively inhibited

## Oc1ccc(C=Cc2cc(O)cc(O)c2)cc1 [resveratrol]
CYP1A1 mRNA [1]; human
  HepG2 CYP1A1 mRNA (%), normalized to TCDD induction: 12%
CYP1A1 mRNA [3]; human, 24 h
  CYP1A1 mRNA level Subject A (%), normalized to TCDD induction: 5%
  CYP1A1 mRNA level Subject B (%), normalized to TCDD induction: 0%
  CYP1A1 mRNA level Subject C (%), normalized to benzanthracene induction: 12%
  CYP1A1 mRNA level Subject D (%), normalized to TCDD induction: 0%
